Experimental data from ChEMBL document CHEMBL1201862, “PubChem BioAssay data set” (2004).
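Each compound was tested at five concentrations against cells in 96-well plates for 48 hours. GI50: concentration for 50% inhibition of growth.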 Activity calls are given as the source filed them. Cut-off read from the data, not from the text of the source: active = GI50 up to about 1.1 µM and inactive = higher.

What was measured:
Experiment in all cases: NCI anticancer screen, dose series, 48 h
[1] = system: LOX IMVI
[2] = system: KM12
[3] = system: BT-549
[4] = system: UACC-62
[5] = system: SK-MEL-2
[6] = system: OVCAR-8
[7] = system: HT-29
[8] = system: UO-31
[9] = system: A498
[10] = system: HCC 2998
[11] = system: SW-620
[12] = system: SK-MEL-28
[13] = system: NCI/ADR-RES
[14] = system: HOP-62
[15] = system: TK-10
[16] = system: 786-0
[17] = system: OVCAR-4
[18] = system: DU-145
[19] = system: Malme-3M

Measured: GI50

NCCSCc1ccccc1Cl
inactive: [1] 25.7 µM | [2] 47.3 µM | [3] 69.7 µM | [4] 53.6 µM | [5] 30.6 µM | [6] 43.3 µM | [7] 36.1 µM | [8] > 100 µM | [9] 27 µM | [10] 18.6 µM | [11] 33.4 µM | [12] 64.6 µM | [13] > 100 µM | [14] 40.6 µM | [15] 26.4 µM | [16] 42.7 µM | [17] 64.9 µM | [18] 43 µM | [19] 65.8 µM

O=C1C(c2c(O)[nH]c3ccc([N+](=O)[O-])cc23)=Nc2ccccc21
inactive: [1] > 100 µM | [2] > 100 µM | [3] 52.5 µM | [4] > 100 µM | [5] 43.5 µM | [6] > 100 µM | [7] > 100 µM | [8] > 100 µM | [9] 98.2 µM | [10] > 100 µM | [11] > 100 µM | [12] > 100 µM | [13] > 100 µM | [14] 87.5 µM | [15] 34.6 µM | [16] 59.8 µM | [17] > 100 µM | [18] > 100 µM | [19] > 100 µM

c1ccc(C2C(=P(c3ccccc3)(c3ccccc3)c3ccccc3)P=PC2[P+](c2ccccc2)(c2ccccc2)c2ccccc2)cc1.c1ccc([B-](c2ccccc2)(c2ccccc2)c2ccccc2)cc1 (centres undefined)
inactive: [4] 2.44 µM | [8] 18.8 µM | [12] 1.85 µM | [13] 3.48 µM | [19] 1.78 µM
active: [1] 0.333 µM | [2] 0.351 µM | [3] 0.721 µM | [5] 0.675 µM | [6] 0.252 µM | [7] 0.354 µM | [9] 0.818 µM | [10] 0.593 µM | [11] 0.767 µM | [14] 0.841 µM | [15] 0.762 µM | [16] 0.289 µM | [17] 0.652 µM | [18] 0.5 µM

NCCCNC1(c2cc3ccccc3s2)CCCCC1
inactive: [1] 2.31 µM | [2] 3.22 µM | [3] 13.8 µM | [4] 1.92 µM | [5] 1.79 µM | [6] 9.62 µM | [7] 2.95 µM | [8] 1.93 µM | [9] 2.72 µM | [10] 1.55 µM | [11] 4.55 µM | [12] 2.12 µM | [13] 13.5 µM | [14] 10.7 µM | [15] 3.75 µM | [16] 2 µM | [17] 11.1 µM | [18] 12 µM | [19] 1.88 µM

O=C1c2cc([N+](=O)[O-])sc2C(=O)c2cc([N+](=O)[O-])sc21
inactive: [1] 1.36 µM | [2] 3.61 µM | [3] 2.05 µM | [4] 1.87 µM | [5] 6.7 µM | [6] 5.79 µM | [7] 3.24 µM | [8] 3.19 µM | [9] 16.2 µM | [10] 3.05 µM | [11] 1.72 µM | [12] 3.23 µM | [13] 3.62 µM | [14] 6.21 µM | [15] 5.89 µM | [16] 2.52 µM | [17] 4.51 µM | [18] 10.3 µM
active: [19] 0.34 µM

CCOC(=O)C1(C/C=C/CBr)Cc2ccccc2C1=O (centres undefined)
inactive: [1] 1.6 µM | [2] 3.07 µM | [3] 2.95 µM | [4] 2.14 µM | [5] 2.25 µM | [6] 2.39 µM | [7] 2.79 µM | [8] 1.96 µM | [9] 17.9 µM | [10] 9.02 µM | [11] 2.58 µM | [12] 6.93 µM | [13] 1.98 µM | [14] 4.03 µM | [15] 2.77 µM | [16] 3.85 µM | [17] 2.03 µM | [18] 3.38 µM | [19] 2.76 µM

CC[C@@]1(O)C(=O)OCc2c1cc1n(c2=O)Cc2c-1nc1ccccc1c2/C=N\NC(=O)C(N)=O
active: [1] 0.0389 µM | [4] 0.0332 µM | [6] 0.248 µM | [8] 0.284 µM | [9] 0.457 µM | [14] 0.107 µM | [16] 0.0705 µM | [18] 0.0736 µM
inactive: [2] > 92.3 µM | [3] 3.44 µM | [5] 29 µM | [7] 4.36 µM | [10] 2.25 µM | [11] 1.42 µM | [12] 17.8 µM | [13] 1.6 µM | [15] 43.6 µM | [17] 38.3 µM | [19] 7.06 µM

CC(=O)Oc1c2oc3ccc(Cl)cc3c(=O)c2c(O)c2ccsc12
inactive: [1] > 100 µM | [2] > 100 µM | [3] 51.4 µM | [4] > 100 µM | [5] > 100 µM | [6] > 100 µM | [7] > 100 µM | [8] > 100 µM | [9] > 100 µM | [10] > 100 µM | [11] > 100 µM | [12] > 100 µM | [13] > 100 µM | [14] > 100 µM | [15] 27.6 µM | [16] > 100 µM | [17] > 100 µM | [18] > 100 µM | [19] > 100 µM

CCOC(=O)c1c(O)cn2c1[nH]c1cccc3cccc2c31
inactive: [1] 46.9 µM | [2] > 100 µM | [3] > 100 µM | [4] > 100 µM | [5] > 100 µM | [6] 44.1 µM | [7] > 100 µM | [8] 69.2 µM | [9] > 100 µM | [10] 64.7 µM | [11] > 100 µM | [12] > 100 µM | [13] > 100 µM | [14] 35.6 µM | [15] > 100 µM | [16] 52.2 µM | [17] > 100 µM | [18] 71.6 µM | [19] > 100 µM

C/C=C/[C@@H](C(=O)OC)N1C(=O)c2ccccc2[C@H]1O
inactive: [1] > 100 µM | [2] > 100 µM | [3] > 100 µM | [4] > 100 µM | [5] > 100 µM | [6] > 100 µM | [7] > 100 µM | [8] > 100 µM | [9] > 100 µM | [10] > 100 µM | [11] > 100 µM | [12] > 100 µM | [13] > 100 µM | [14] > 100 µM | [15] > 100 µM | [16] > 100 µM | [17] > 100 µM | [18] > 100 µM | [19] > 100 µM

CSc1c(C#N)c(N)nc2c(/N=N\c3ccc(Cl)cc3)c(N)nn12
inactive: [1] 1.52 µM | [2] 6.14 µM | [3] 2.94 µM | [4] 3.33 µM | [5] 2.87 µM | [6] 2.08 µM | [7] 3.34 µM | [8] 2.13 µM | [9] 39.2 µM | [10] 5.94 µM | [11] 2.16 µM | [12] 2.58 µM | [13] 16.8 µM | [14] 10.7 µM | [15] 13.3 µM | [16] 2.86 µM | [17] 2.64 µM | [18] 2.24 µM | [19] 6.08 µM
